Converted amounts (≈) assume the structure as drawn. Where two headings read alike, the source gives them in different places.

In test [1] the test system is Trypanosoma brucei rhodesiense. The experiment in a line: In vitro antiprotozoal assay against T. brucei rhodesiense (Tbr). Conditions: for SI Tbr: ratio of cytotoxic (L6) over antiprotozoal IC50. Format: cell-based. How it is done:
(§1) All fractions were analyzed by UHPLC/+ESI QTOF MSMS and representative samples chosen for re-evaluation of their antiprotozoal activity. At this stage, each of the chosen fractions was tested for percent growth inhibitory activity at two concentrations (see Table 2).
(§2) The assays and the IC50 determinations were performed essentially as described previously.

The next test deals with T. cruzi. The experiment in a line: In vitro antiprotozoal assay against T. cruzi (Tcr). To be noted: Trypanosoma cruzi. Type of test: cell-based. How it is done: as §1, §2
Another test deals with Leishmania donovani. The experiment in a line: In vitro antiprotozoal assay against Leishmania donovani (Ldo). Format: cell-based. The procedure:
as §1, §2

Test [2] deals with Plasmodium falciparum NF54 strain. In words: In vitro antiplasmodial assay, P. falciparum NF54 strain. Format: cell-based. To be noted: for IC50: Plasmodium falciparum; for SI Pf: ratio of cytotoxic (L6) over antiprotozoal IC50, Pf NF54 strain. How it is done:
as §1, §2

The test system of test [3] is rat skeletal myoblasts (L6 cell line). The experiment in a line: Cytotoxicity against rat skeletal myoblasts (L6 cell line). Type of test: cell-based. How it is done: as §2
Test [4] has as its system K1 strain of Pf. On the set-up: method as in PMID 15234750. To be noted: cited from earlier work.
The subject of test [5] is Plasmodium falciparum K1 strain. The experiment in a line: In vitro antiplasmodial assay, P. falciparum K1 strain. Type of test: cell-based. To be noted: K1, read-out: IC50 Pf (value in brackets). The procedure:
Tests for antiprotozoal activities were carried out using established standard protocols at the Swiss Tropical and Public Health Institute (Swiss TPH, Basel, Switzerland). The assays and the IC50 determinations were performed essentially as described previously.

Test [6] has as its system K1 strain of Pf. The arrangement: method as in PMID 2236290. To be noted: cited from earlier work.
Setting [7] is: Trypanosoma brucei, RHODESIENSE, in vitro, means of two independent determinations ± deviation from mean, read-out: IC50 Tbr.
Setting [8] is: Trypanosoma brucei, RHODESIENSE, in vitro, pure compounds, read-out: IC50 Tbr (value in brackets) (converted).
The mark [9] stands for this setting: NF54, read-out: IC50 Pf (value in brackets).
Setting [10] is: L6, read-out: IC50 Tox. L6 (value in brackets).
Setting [11] is: in vitro, means of two independent determinations ± deviation from mean, read-out: IC50 Tcr.
[12] abbreviates: in vitro, pure compounds, read-out: IC50 Tcr (value in brackets) (converted).
Where [13] appears, read: in vitro, means of two independent determinations ± deviation from mean, read-out: IC50 Ldo.
Where [14] appears, read: in vitro, pure compounds, read-out: IC50 Ldo (value in brackets) (converted).
Setting [15] is: NF54, NF54 strain, pure compounds, read-out: IC50 Pf (value in brackets) (converted).
[16] abbreviates: compared with A. ptarmica crude extract.
The mark [17] stands for this setting: cytotoxicity, L6 cell line, means of two independent determinations ± deviation from mean, read-out: IC50 Tox. L6.
The mark [18] stands for this setting: cytotoxicity, L6 cell line, pure compounds, read-out: IC50 Tox. L6 (value in brackets) (converted).

One may read the IC50 as the concentration that gives 50% inhibition. For the molecule `Nc1nc(N)nc(Nc2ccc([As]3SCC(CO)S3)cc2)n1` (centres unmarked) [Melarsoprol, reference compound], the IC50 in test [1] (Trypanosoma brucei, RHODESIENSE, read-out: IC50 Tbr) was 0.003 ± 0.001 µg/mL; in test [1] (Trypanosoma brucei, RHODESIENSE, read-out: IC50 Tbr (value in brackets)), 0.008 µM.

Turning to `CCCC#CC#CCC/C=C/C=C/C(=O)NCC(C)C` [Anacycline (6), (E,E)-2,4-tetradecadien-8,10-diynoic acid isobutylamide], the IC50 in test [1] (setting [7]) was 5.12 ± 0.95 µg/mL; in test [1] (setting [8]), 18.9 µM; in the test on T. cruzi (read-out: IC50 Tcr), 42 ± 4.5 µg/mL; in the test with T. cruzi (read-out: IC50 Tcr (value in brackets)), 155 µM; in the test on Leishmania donovani (read-out: IC50 Ldo), more than 100 µg/mL; in the test on Leishmania donovani (read-out: IC50 Ldo (value in brackets)), more than 369 µM. Further, the IC50 in test [2] (NF54, read-out: IC50 Pf) was 7.23 ± 0.4 µg/mL; in test [2] (setting [9]), 26.7 µM; in test [3] (L6, read-out: IC50 Tox. L6) it was 48.7 ± 1.1 µg/mL; in test [3] (setting [10]) it was 18 µM. Further, the “SI Tbr” value in test [1] was 9.5. Besides, the “SI Pf” value in test [2] worked out at 6.74.

With `CCCCC/C=C/C=C/C(=O)NCC(C)C` [Pellitorine (1), (E,E)-2,4-decadienoic acid isobutylamide], the IC50 was 5.35 ± 0.54 µg/mL in test [1] (setting [7]); 24 µM in test [1] (setting [8]); 8.45 ± 1.08 µg/mL with T. cruzi (setting [11]); 37.9 µM in the test with T. cruzi (setting [12]); 5.96 ± 0.16 µg/mL in the test with Leishmania donovani (setting [13]); 26.7 µM with Leishmania donovani (setting [14]). Besides, the IC50 in test [2] (NF54, NF54 strain, means of two independent determinations ± deviation from mean, read-out: IC50 Pf) was 3.26 µg/mL; in test [2] (setting [15]), 14.6 µM; in test [3] (setting [17]), 45.5 ± 9.1 µg/mL; in test [3] (setting [18]), 202 µM. For the same molecule, the “SI Tbr” value in test [1] is 8.41. Also, the “IC50 Pf” value in test [2] (NF54 strain, means of two independent determinations ± deviation from mean) is 3.3 µg/mL (≈ 14.8 µM). The “Antiplasmodial activity, fold higher than that of the crude extract” value in test [2] (setting [16]) is recorded as “about 2 fold”. In addition, the “SI Pf” value in test [2] worked out at 13.85. For the same molecule, the “Concentration up to which reported inactive against Pf” value in the test on K1 strain of Pf [4] was more than 20 µg/mL.

For `O=C(Cn1ccnc1[N+](=O)[O-])NCc1ccccc1` [Benznidazole, reference compound], the IC50 in the test with T. cruzi (setting [11]) was 0.439 ± 0.094 µg/mL; with T. cruzi (setting [12]), 1.69 µM.

For `CCN(CC)CCCC(C)Nc1ccnc2cc(Cl)ccc12` (centres unmarked) [Chloroquine, reference compound], the IC50 in test [5] is 0.25 µM; in test [2] (setting [9]) it was 0.009 µM.

As for `CCCCCC=CC=CC(=O)NCC(C)C` [N-isobutyldeca-2,4-diene], the “IC50 against Pf” value in the test on K1 strain of Pf [6] was 5.4 µg/mL (≈ 24.2 µM).

Turning to `C/C=C\CC/C=C/C=C/C(=O)NCC(C)C` [8,9-Z-Dehydropellitorine (2), (E,E,Z)-2,4,8-decatrienoic acid isobutylamide], the IC50 in test [1] (setting [7]) was 2 ± 0.06 µg/mL; in test [1] (setting [8]), 9 µM; in test [1] (in vitro, pure compounds, read-out: IC50 Tbr (value in brackets) (converted)), 9.1 µM; with T. cruzi (setting [11]), 14.2 ± 2.5 µg/mL; with T. cruzi (setting [12]), 64.3 µM; in the test on Leishmania donovani (setting [13]), 5.01 ± 0.12 µg/mL. The IC50 is 22.7 µM in the test with Leishmania donovani (setting [14]), 29.3 µM in test [2] (setting [15]), 16.5 ± 0.2 µg/mL in test [3] (setting [17]) and 74.7 µM in test [3] (setting [18]). For the same molecule, the “Anti-Tbr activity, fold lower in comparison with the crude extract” value in test [1] (setting [16]) was determined as 3 fold. Besides, in test [1] (compared with A. ptarmica total extract), the “Selectivity index (Tbr), fold lower than that of the total extract” value was “about 5 fold”. Also, the “SI Tbr” value in test [1] is recorded as 8.25. Also, in test [2], the “SI Pf” value amounted to 2.55.

For the molecule `COc1cc([C@@H]2c3cc4c(cc3[C@H](O)[C@H]3COC(=O)[C@H]23)OCO4)cc(OC)c1OC` [Podophyllotoxin, reference compound], the IC50 in test [3] (L6, read-out: IC50 Tox. L6) is 0.008 ± 0.001 µg/mL; in test [3] (setting [10]), 0.019 µM.

(Values after publication PMC6271219, “Antiprotozoal Activity of Achillea ptarmica (Asteraceae) and Its Main Alkamide Constituents” (Molecules, 2014).)
